Assay results taken from US11542492B2 (Celgene CAR LLC, priority 2009, dated 2023).

Legend:
PDPK1 [1] = target: T1, PDPK1 (Homo sapiens, UniProt O15530); test: PDK1-OMNIA kinase assay (ST28-Sox peptide); type: biochemical; set-up: purchased Invitrogen, BPS or SignalChem P3001 (Invitrogen), 40080 (BPS), P14-10H (SignalChem); conditions: PDPK1 enzyme pre-incubated 30 min at 25° C. with compound; [ATP]=5 μM; ST28-Sox peptide substrate; read-out: Inhibition/Modification Designation (IC50, PDK1-OMNIA)
T1 sequence (O15530 1-556): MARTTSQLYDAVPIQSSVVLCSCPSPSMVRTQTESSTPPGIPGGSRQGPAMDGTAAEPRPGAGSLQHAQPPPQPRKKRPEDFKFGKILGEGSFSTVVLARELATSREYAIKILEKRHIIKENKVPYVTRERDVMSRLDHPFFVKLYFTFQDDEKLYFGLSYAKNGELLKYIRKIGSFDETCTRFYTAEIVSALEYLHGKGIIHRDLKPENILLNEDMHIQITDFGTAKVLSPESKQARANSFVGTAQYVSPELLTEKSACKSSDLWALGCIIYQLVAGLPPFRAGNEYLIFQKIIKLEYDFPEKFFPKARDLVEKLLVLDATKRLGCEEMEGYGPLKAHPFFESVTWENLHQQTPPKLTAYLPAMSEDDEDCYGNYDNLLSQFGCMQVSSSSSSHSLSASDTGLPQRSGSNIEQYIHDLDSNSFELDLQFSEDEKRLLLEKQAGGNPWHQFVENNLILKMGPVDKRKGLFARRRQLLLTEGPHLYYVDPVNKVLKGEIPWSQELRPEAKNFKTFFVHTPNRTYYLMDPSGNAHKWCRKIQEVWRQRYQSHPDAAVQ
Description: Briefly, a 10× stock of PDPK1 enzyme from Invitrogen (P3001) or BPS (40080) or SignalChem (P14-10H), 1.13×ATP (AS001A) and ST28-Sox peptide substrate (KNZ1281C) were prepared in 1× kinase reaction buffer consisting of 20 mM Tris, pH 7.5, 5 mM MgCl2, 1 mM EGTA, 5 mM β-glycerophosphate, 5% glycerol (10× stock, KB002A) and 0.2 mM DTT (DS001A). 5 μL of enzyme were pre-incubated in a Corning (#3574) 384-well, white, non-binding surface microtiter plate (Corning, N.Y.) for 30 min at 25° C. with a 0.5 μL volume of 50% DMSO and serially diluted compounds prepared in 50% DMSO. Kinase reactions were started with the addition of 45 […] of the ST28-Sox peptide substrate and monitored every 71 seconds for 30-60 minutes at λex360/λem485 in a Synergy4 plate reader from BioTek (Winooski, Vt.). At the conclusion of each assay, progress curves from each well were examined for linear reaction kinetics and fit statistics (R^2, 95% confidence interval, absolute sum of squares). Post-lag velocity (+10 minutes to 20+ minutes) from each reaction was estimated from the slope of a plot of relative fluorescence units vs time (minutes) and normalized to the no enzyme and no inhibitor control groups for % Inhibition. The resulting inhibition values were then plotted against inhibitor concentration to estimate IC50 from log [Inhibitor] vs Response, Variable Slope model in GraphPad Prism from GraphPad Software (San Diego, Calif.).
[Reagent] used in provisional protocol(s): Invitrogen—[PDPK1]=5-10 nM, [ATP]=5 μM and [ST28-Sox]=5 μM or 10 μM (ATP KMapp=4-6 μM); BPS—[PDPK1]=10-15 nM, [ATP]=5 μM and [ST28-Sox]=10 μM (ATP KMapp=3-5 μM); SignalChem—[PDPK1]=5-10 nM, [ATP]=5 μM and [ST28-Sox]=5 μM or 10 μM (ATP KMapp ND)

PDPK1 [2] = target: T1, PDPK1; test: MALDI MS of intact PDPK1 incubated with compound; type: binding; set-up: purchased Millipore 14-452; conditions: for Number of Modifications on Whole Protein: PDPK1 whole protein, MS
Description: (§1) Intact PDPK1 was incubated for 3 hr at a 10-fold excess of compound XI-27 to protein. 3 μL aliquots of the samples were diluted with 10 μL of 0.1% TFA prior to micro C4 Ziptipping directly onto the MALDI target plate using sinapinic acid as the desorption matrix (10 mg/mL in 0.1% TFA:Acetonitrile 50:50).
as §1, with “XI-21” for “XI-27”
For example, Table 7 lists non-limiting examples of compounds that modify PDPK1 whole protein, the number of modifications per protein and the lysines modified within the protein. […] Also, the lysine modified in PDPK-1 by XI-27, XI-26, XI-22, and XI-21 are not the same for each compound. Without wishing to be bound to any particular theory, the position of the warhead, as presented by the scaffold and tether to the lysines in the binding site, effects different results on the modification of the different lysines in the binding site of PDPK-1.

[3] = target: T2, recombinant human ML-IAPβ (Homo sapiens, UniProt Q96CA5); test: Fluorescence polarization competition binding assay, ML-IAPβ; conditions: ML-IAP, 2 h
T2 construct: purchased R&D Systems 818-IA
T2 sequence (Q96CA5 1-280 isoform Q96CA5-2): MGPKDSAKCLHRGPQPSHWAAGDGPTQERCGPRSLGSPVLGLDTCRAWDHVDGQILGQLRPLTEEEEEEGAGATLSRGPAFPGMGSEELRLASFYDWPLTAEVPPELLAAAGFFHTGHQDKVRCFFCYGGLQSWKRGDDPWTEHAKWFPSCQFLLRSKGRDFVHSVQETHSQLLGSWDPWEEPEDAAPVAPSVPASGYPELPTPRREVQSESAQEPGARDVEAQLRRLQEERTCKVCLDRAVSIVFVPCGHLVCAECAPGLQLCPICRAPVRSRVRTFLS
Description: (§2) Homogeneous, Fluorescence Polarization, Competition Binding Assay Protocol for Affinity Assessment of Compound Binding to XIAP, cIAP-1 and ML-IAPβ BIR3 Domains
(§3) 1× stocks of recombinant human XIAP; BIR3 domain (895-XB), recombinant human cIAP-1 (818-IA) or recombinant human ML-IAPβ (818-IA) from R&D Systems and Fluorescence Polarization (FP) assay tracer (Atto-647 tagged IAP inhibitor probe compound) were prepared in assay buffer consisting of 25 mM Tris-HCL, pH 7.5 (Sigma), 10 mM […] (Sigma), 1 mM DTT (Fluka) and 0.005% TritonX-100 (Pierce). While IAP protein and tracer equilibrated at ambient temp in the dark (30-60 min), 100× stocks of test compound were prepared in 50% DMSO:H2O, serially diluted and spotted (0.5 µL/well) in duplicate wells of a 384-well, flat bottom, polypropylene, black assay plate (Greiner #781209). […] Competition binding between test compounds and assay tracer was initiated by the addition of 50 µL/well of pre-equilibrated IAP protein and assay tracer. Displacement of the assay tracer was measured in a Synergy plate reader from BioTek (Winooski, Vt.) at λex620/λem680 through a 660 nm half-sized dicroich mirror and S/P polarizing filters every 30 min for 3 hr. (See Huang, X., Journal of Biomolecular Screening 8, 2003). The resulting compound dose response data were fit to a one-site binding Ki model in GraphPad Prism from GraphPad Software (San Diego, Calif.).

recombinant human cIAP-1 = target: T3, recombinant human cIAP-1 (Homo sapiens, UniProt Q13490); test: Fluorescence polarization competition binding assay, cIAP-1; conditions: c-IAP-1, 3 h
T3 construct: purchased R&D Systems 818-IA
Description: as §2, §3

p110α/p85α (PI3Kα) = target: T4, p110α/p85α (PI3Kα) (Homo sapiens, UniProt P42336); test: HTRF assay, p110α/p85α; type: biochemical; conditions: read-out: PI3Kα-HTRF-IC50 nM Inhibition Designation
T4 construct: purchased BPS Bioscience or Millipore 40620 (BPS Bioscience) or 14-602 (Millipore)
Description: HTRF Assay Protocol for Potency Assessment Against the Active Form of p110α/p85α:
The mechanics of the assay platform are best described by the vendor (Millipore, Billerica, Mass.) on their website at the following URL: http://www.millipore.com/coa/tech1/74jt4z.
Briefly, Stop solution (Stop A, #33-007 and Stop B, #33-009; 3:1 ratio) and Detection Mix (DMC, #33-015 with DMA, #33-011 and DMB, #33-013; 18:1:1 ratio) were prepared as recommended by the manufacturer ˜2 hrs prior to use. […] Lipid kinase reactions were started with the addition of 5 μL of ATP solution, mixed for 15 sec on a rotary plate shaker and incubated for 15-30 minutes at 25° C. Next, reactions were stopped with a 5 μL addition of Stop solution followed by a 5 μL volume of Detection Mix. […] At the conclusion of each assay, the HTRF ratio from fluorescence emission values for each well was calculated and % Inhibition determined from averaged controls wells. % Inhibition values for each compound re then plotted against inhibitor concentration to estimate IC50 from log [Inhibitor] vs Response, Variable Slope model in GraphPad Prism from GraphPad Software (San Diego, Calif.).

p120γ (PI3Kγ) = target: T5, p120γ (PI3Kγ) (Homo sapiens, UniProt P48736); test: HTRF assay, p120γ; type: biochemical; conditions: PI3Kγ; read-out: PI3Kγ HTRF IC50 Inhibition Designation
T5 construct: purchased BPS Bioscience 40625
Summary of the method: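 End-point competition-binding HTRF with 1-4 nM enzyme and 10 μM di-C8-PIP2, pre-incubated with compound 30 min at 25° C, then 50 μM ATP for 15-30 min at 25° C. HTRF ratio (665/620 nm) gave % inhibition; IC50 from variable-slope log-dose fit.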

HCT116 = test: HCT116-WB assay; type: cell-based; conditions: Homo sapiens, HCT-116; read-out: HCT116-WB Inhibition Designation

T4 sequence (P42336 whole entry): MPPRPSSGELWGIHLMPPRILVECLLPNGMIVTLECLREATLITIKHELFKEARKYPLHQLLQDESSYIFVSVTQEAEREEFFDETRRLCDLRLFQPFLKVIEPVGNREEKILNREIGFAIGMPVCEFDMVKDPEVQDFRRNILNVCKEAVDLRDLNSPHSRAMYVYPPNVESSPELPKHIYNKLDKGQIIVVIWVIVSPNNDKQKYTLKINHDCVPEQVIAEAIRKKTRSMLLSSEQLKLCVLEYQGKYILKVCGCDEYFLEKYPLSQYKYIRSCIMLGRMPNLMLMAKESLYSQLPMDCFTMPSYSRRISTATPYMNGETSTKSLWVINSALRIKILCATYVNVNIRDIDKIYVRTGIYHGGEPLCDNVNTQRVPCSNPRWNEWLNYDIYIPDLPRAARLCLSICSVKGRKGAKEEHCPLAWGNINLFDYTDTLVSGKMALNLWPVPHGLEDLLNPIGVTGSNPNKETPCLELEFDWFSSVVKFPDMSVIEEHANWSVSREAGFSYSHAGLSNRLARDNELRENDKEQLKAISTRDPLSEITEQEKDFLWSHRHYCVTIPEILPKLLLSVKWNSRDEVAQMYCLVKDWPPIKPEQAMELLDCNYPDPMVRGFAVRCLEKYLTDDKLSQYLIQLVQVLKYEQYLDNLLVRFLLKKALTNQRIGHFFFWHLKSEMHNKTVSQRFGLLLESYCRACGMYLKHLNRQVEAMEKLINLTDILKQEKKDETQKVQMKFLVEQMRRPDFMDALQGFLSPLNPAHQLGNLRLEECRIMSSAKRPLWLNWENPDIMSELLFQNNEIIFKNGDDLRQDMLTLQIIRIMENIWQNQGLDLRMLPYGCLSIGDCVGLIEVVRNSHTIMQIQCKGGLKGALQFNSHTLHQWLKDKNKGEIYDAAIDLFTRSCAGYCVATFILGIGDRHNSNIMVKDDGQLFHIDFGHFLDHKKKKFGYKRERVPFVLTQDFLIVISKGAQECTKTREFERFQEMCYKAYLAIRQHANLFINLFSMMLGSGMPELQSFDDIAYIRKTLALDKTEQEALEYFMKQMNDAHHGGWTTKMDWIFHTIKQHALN
T4 sequence (P27986 whole entry partner): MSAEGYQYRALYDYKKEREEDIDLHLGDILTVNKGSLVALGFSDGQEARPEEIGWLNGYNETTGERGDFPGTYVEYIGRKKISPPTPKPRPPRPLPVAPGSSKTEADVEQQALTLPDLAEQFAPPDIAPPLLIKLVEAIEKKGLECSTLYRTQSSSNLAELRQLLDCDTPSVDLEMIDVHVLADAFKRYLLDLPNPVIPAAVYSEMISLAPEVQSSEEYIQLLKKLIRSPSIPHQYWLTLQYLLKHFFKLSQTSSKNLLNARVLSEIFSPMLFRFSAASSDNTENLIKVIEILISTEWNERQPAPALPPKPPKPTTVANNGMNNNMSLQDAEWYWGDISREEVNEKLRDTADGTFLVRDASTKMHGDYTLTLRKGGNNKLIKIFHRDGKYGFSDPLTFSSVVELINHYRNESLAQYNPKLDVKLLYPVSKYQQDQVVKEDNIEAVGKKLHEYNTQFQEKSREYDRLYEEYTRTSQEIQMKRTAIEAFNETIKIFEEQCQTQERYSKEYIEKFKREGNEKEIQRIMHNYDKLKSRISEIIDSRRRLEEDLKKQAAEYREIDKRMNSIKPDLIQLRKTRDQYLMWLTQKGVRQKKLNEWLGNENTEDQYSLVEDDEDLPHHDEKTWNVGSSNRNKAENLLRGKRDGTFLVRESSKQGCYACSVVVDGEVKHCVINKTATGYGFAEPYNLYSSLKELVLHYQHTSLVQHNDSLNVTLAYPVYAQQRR
T5 sequence (P48736 whole entry): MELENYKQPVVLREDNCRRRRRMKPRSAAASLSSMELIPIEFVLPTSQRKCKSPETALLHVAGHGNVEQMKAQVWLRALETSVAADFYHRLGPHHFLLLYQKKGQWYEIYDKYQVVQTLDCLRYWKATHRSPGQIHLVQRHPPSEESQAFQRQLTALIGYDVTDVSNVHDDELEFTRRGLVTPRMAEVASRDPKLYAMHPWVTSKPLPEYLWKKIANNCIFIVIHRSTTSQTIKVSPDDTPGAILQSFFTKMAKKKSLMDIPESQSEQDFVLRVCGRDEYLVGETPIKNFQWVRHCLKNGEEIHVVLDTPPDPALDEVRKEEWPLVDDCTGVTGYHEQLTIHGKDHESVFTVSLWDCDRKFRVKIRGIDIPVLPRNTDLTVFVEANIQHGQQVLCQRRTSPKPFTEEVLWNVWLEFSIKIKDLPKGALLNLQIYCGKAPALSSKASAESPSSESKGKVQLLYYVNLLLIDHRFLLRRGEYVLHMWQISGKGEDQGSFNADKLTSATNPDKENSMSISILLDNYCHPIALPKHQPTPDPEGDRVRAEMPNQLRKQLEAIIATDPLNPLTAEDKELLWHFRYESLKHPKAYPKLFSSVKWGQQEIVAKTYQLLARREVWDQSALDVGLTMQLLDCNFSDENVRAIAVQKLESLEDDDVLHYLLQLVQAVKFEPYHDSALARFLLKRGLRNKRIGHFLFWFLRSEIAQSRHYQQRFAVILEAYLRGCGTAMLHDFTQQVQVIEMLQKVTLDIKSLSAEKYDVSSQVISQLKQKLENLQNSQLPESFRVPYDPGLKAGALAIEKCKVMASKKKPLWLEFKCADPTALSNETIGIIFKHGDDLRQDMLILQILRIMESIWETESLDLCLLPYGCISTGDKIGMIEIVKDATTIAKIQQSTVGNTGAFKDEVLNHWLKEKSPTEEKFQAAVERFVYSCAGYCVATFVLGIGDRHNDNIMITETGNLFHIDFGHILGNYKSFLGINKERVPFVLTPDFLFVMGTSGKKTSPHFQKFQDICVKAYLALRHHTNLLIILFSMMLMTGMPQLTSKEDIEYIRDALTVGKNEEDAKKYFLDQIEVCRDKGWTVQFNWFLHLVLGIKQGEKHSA
T3 sequence (Q13490 whole entry): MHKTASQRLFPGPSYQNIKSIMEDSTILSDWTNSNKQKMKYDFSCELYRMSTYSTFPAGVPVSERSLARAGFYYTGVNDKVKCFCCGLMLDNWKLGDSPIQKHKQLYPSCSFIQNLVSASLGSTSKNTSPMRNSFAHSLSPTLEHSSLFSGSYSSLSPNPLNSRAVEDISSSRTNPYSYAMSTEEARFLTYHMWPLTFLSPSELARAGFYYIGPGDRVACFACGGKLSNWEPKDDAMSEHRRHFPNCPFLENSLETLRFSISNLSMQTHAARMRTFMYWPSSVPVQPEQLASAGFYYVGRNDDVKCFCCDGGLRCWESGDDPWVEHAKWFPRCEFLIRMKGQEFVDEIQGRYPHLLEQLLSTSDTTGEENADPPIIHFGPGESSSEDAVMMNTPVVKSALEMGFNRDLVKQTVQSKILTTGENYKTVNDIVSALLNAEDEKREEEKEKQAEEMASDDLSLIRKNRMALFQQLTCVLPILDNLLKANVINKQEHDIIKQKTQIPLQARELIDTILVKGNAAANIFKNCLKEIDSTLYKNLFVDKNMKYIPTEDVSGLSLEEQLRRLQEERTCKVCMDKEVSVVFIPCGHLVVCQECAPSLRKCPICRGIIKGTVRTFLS

| IC50 (PDPK1 [1]) [nM] | Number of Modifications on Whole Protein (PDPK1 [2]) | IC50 (p110α/p85α (PI3Kα)) [nM] | IC50 (p120γ (PI3Kγ)) [nM] | IC50 (HCT116) [nM] | SMILES | other results |
| --- | --- | --- | --- | --- | --- | --- |
| < 10 | 1 |  |  |  | CC(C)(C(N)=O)C(=O)NCCCNc1nc(Nc2cccc(NC(=O)C3CSC(=O)C3)c2)ncc1Br (stereo not shown) [XI-27] | modification of PDPK1 (PDPK1 [2]; 3 hr, 10-fold excess): complete modification; mass shift of PDPK1 (PDPK1 [2]; 3 hr, 10-fold excess of compound to protein): 568 Da |
|  |  |  |  |  | [2H]C([2H])=C([2H])C(=O)Nc1cccc(CNC(=O)[C@@H]2CC[C@@H]3CCCC[C@H](NC(=O)[C@H](C)NC)C(=O)N32)c1 [VII-16] | Ki [3]: 100 to 1000 nM; Ki (recombinant human cIAP-1): 100 to 1000 nM |
|  | 1 |  |  |  | C=CC(=O)Nc1cccc(Nc2ncc(Br)c(NCCCNC(=O)C(C)(C)C(N)=O)n2)c1 [XI-53] |  |
|  |  | 100 to 1000 | 100 to 1000 | 10 to 100 | CN(Cc1cc2nc(-c3cccc(O)c3)nc(N3CCOCC3)c2s1)C(=O)[C@H]1CCC(=O)O1 [XXII-7] |  |
|  |  |  | 100 to 1000 | 100 to 1000 | C=CC(=O)N1CCN(CC#Cc2cc3nc(-c4cccc(O)c4)nc(N4CCOCC4)c3s2)CC1 [XXII-3] |  |
| 10 to 100 | 1 |  |  |  | CC(C)(C(N)=O)C(=O)NCCCNc1nc(Nc2cccc(NC(=O)CNC(=O)C3CSC(=O)C3)c2)ncc1Br (stereo not shown) [XI-26] |  |
| 10 to 100 | 1 |  |  |  | C=CC(=O)Nc1ccc(Nc2ncc(Br)c(NCCCNC(=O)C(C)(C)C(N)=O)n2)cc1 [XI-39] |  |
|  |  | 100 to 1000 | 100 to 1000 | 1000 to 10000 | CC1(C)Cc2nc(N3CCOc4ccc(-c5ccc(C(=O)N6C[C@@H]7C[C@H]6C(=O)O7)cc5)cc43)sc2C(=O)N1 [XXIII-8, (1S,4S)-5-(4-(4-(6,6-dimethyl-4-oxo-4,5,6,7-tetrahydrothiazolo[5,4-c]pyridin-2-yl)-3,4-dihydro-2H-benzo[b][1,4]oxazin-6-yl)benzoyl)-2-oxa-5-azabicyclo[2.2.1]heptan-3-one] |  |
|  |  | 10 to 100 | 100 to 1000 | 100 to 1000 | O=C1CC[C@H](C(=O)N2CC=C(c3cc4nc(-c5cccc(O)c5)nc(N5CCOCC5)c4s3)CC2)O1 [XXII-2] |  |
